Assay results: US10023518B2, “Substituted aromatic compounds and related method for the treatment of fibrosis” (PROMETIC BIOSCIENCES INC., priority 2013, dated 2018)
Each block holds one compound with its values, some of them ahead of it.

Legend:
[1] = tested on: collagen 1 mRNA expression in TGF-β induced HK-2 cells; assay: Inhibition of collagen 1 mRNA expression in TGF-β induced HK-2 epithelial cells (quantitative real-time PCR); format: cell-based, human; settings: TGF-β 10 ng/mL; for expression of collagen in TGF-β-induced HK-2 cells (in words): concentration not given
Protocol: In epithelial cells, analysis was undertaken to determine the effect of compounds of the invention on TGF-β-induced collagen 1 (marker of fibrosis) on human proximal tubule epithelial cells (HK-2). HK-2 cells are immortalized proximal tubule epithelial cells, from human kidney, which were treated with TGF-β at a concentration of 10 ng/mL Expression of the profibrotic marker collagen 1 was determined by quantitative real-time PCR.

[2] = tested on: α-SMA mRNA expression in TGF-β induced NRK-49F cells; assay: Inhibition of α-SMA mRNA expression in TGF-β induced NRK-49F cells (quantitative real-time PCR); format: cell-based, rat; settings: TGF-β 10 ng/ml
Protocol: In fibroblast, analysis was undertaken to determine the effect of preferred compounds of the present invention on TGF-β-induced α-SMA (marker of fibrosis) mRNA expression on normal rat kidney fibroblast (NRK-49F). NRK-49F were treated with TGF-β at a concentration of 10 ng/ml and became activated (myofibroblast) and expressed α-SMA. Expression of the profibrotic marker α-SMA was determined by quantitative real-time PCR.

db/db diabetic mouse = assay: Glomerular filtration rate in nephrectomised db/db diabetic mouse model of renal fibrosis; format: in vivo; settings: db/db mice, right nephrectomy day 0, GFR on day 119
Protocol: FIG. 1 illustrates the glomerular filtration rate (GFR) function in db/db diabetic mouse compared to C57BL/6 mice (control mice), and in db/db diabetic mouse following oral treatment with Compound 1 at a dose of 10 and 50 mg/kg.
Typical experimental models of kidney fibrosis in mice or rats include db/db nephritic mice (models for diabetic nephropathy) and reflects the nephropathy observed in human. Evaluation of the effect of Compound 1 on diabetic nephropathy was performed in a db/db mouse model. Briefly, total nephrectomy of the right kidney was performed on day 0 and db/db mice (6-week old) were treated with vehicle or Compound 1 (10 and 50 mg/kg, oral once a day) from day 1 and glomerular filtration rate (GFR) was measured on day 119 as a direct measure of kidney function. FIG. 1 illustrates the reduction of GFR in db/db diabetic mouse compared to C57BL/6 mice (control mice), showing clearly the nephropathy associated with diabetes.

melting point: 225 to 230 °C
SMILES: CCCCCc1cc(CCCCC)cc(CC(=O)[O-])c1.[Na+] [Compound 1, Sodium 2-[3,5-Dipentylphenyl]acetate]
Collagen expression in HK-2 cells % of inhibition [mM] ([1]; 0.02 mM compound): 100% [0.02]
expression of collagen in TGF-β-induced HK-2 cells (in words) [1]: inhibits the expression of collagen
α-SMA expression in NRK-49F % of inhibition [mM] ([2]; 0.01 mM compound): 94% [0.01]
glomerular filtration rate (GFR) (db/db diabetic mouse; 10 mg/kg oral once a day from day 1): increases the GFR function of the kidney up to normal
glomerular filtration rate (GFR) (db/db diabetic mouse; 50 mg/kg oral once a day from day 1): increases the GFR function of the kidney up to normal

SMILES: CCCCCCc1cc(CCCCCC)cc(CC(=O)[O-])c1.[Na+] [Compound 2, Sodium Salt of 2-(3,5-Dihexylphenyl)acetic acid]
Collagen expression in HK-2 cells % of inhibition [mM] ([1]; 0.008 mM compound): 100% [0.008]
expression of collagen in TGF-β-induced HK-2 cells (in words) [1]: inhibits the expression of collagen
α-SMA expression in NRK-49F % of inhibition [mM] ([2]; 0.006 mM compound): 89% [0.006]

SMILES: CCCCCc1cc(CCCCC)c(O)c(CC(=O)[O-])c1.[Na+] [Compound 3, Sodium Salt of 2-(2-Hydroxy-3,5-dipentylphenyl)acetic acid]
α-SMA expression in NRK-49F % of inhibition [mM] ([2]; 0.0125 mM compound): 100% [0.0125]

SMILES: CCCCCc1cc(CC(=O)[O-])cc(CCCCC)c1O.[Na+] [Compound 5, Sodium Salt of 2-(4-Hydroxy-3,5-dipentylphenyl)acetic acid]
α-SMA expression in NRK-49F % of inhibition [mM] ([2]; 0.025 mM compound): 41% [0.025]
